Results: the supplement of paper PMC10331698
± gives the standard deviation of the averaged measurements.

Legend:
Assay in all cases: level (log10 ratio to DMSO vehicle control); higher = higher biomarker level / cell amount than vehicle control
Conditions in all cases: in DMSO
1-(Perfluorohexyl)octane = compound: CCCCCCCCC(F)(F)C(F)(F)C(F)(F)C(F)(F)C(F)(F)C(F)(F)F [1-(Perfluorohexyl)octane]
Description: (§1)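 BioMAP Diversity Plus panel of 12 human primary cell co-culture systems (3C, 4H, LPS, SAg, BT, BF4T, BE3C, CASM3C, HDF3CGF, KF3CT, MyoF, Mphg). Compounds were added 1 h before stimulation and left for 24 h (MyoF 48 h; BT 72 h for soluble read-outs or 6 d for IgG). Biomarkers were read by ELISA, cytotoxicity by SRB, PBMC viability and proliferation by Alamar Blue. Each well value was divided by the mean of 8 DMSO control wells on the same plate and log10 transformed; duplicate blinded samples were tested at 4 concentrations.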

Perfluorooctanamidine = compound: N=C(N)C(F)(F)C(F)(F)C(F)(F)C(F)(F)C(F)(F)C(F)(F)C(F)(F)F [Perfluorooctanamidine]
Description: as §1

[1] = compound: O=C(O)C(F)(F)C(F)(F)C(F)(F)C(F)(F)C(F)(F)C(F)(F)C(F)(F)C(F)(F)Cl [9-Chloro-perfluorononanoic acid]
Description: as §1

Perfluorohexanoic acid = compound: O=C(O)C(F)(F)C(F)(F)C(F)(F)C(F)(F)C(F)(F)F [Perfluorohexanoic acid]
Description: as §1

[2] = compound: O=C(O)CCC(F)(F)C(F)(F)C(F)(F)C(F)(F)C(F)(F)F [2H,2H,3H,3H-Perfluorooctanoic acid]
Description: as §1

[3] = compound: O=S(=O)(O)C(F)(F)C(F)(F)C(F)(F)C(F)(F)C(F)(F)C(F)(F)C(F)(F)C(F)(F)F [Potassium perfluorooctanesulfonate]
Description: as §1

[4] = compound: OCC(F)(F)C(F)(F)C(F)(F)C(F)(F)C(F)(F)C(F)F [1H,1H,7H-Dodecafluoro-1-heptanol]
Description: as §1

| Test System | level (log10) (1-(Perfluorohexyl)octane; 6700 nM) | level (log10) (1-(Perfluorohexyl)octane; 20000 nM) | level (log10) (Perfluorooctanamidine; 6700 nM) | level (log10) (Perfluorooctanamidine; 20000 nM) | level (log10) (Perfluorooctanamidine; 60000 nM) | level (log10) ([1]; 6700 nM) | level (log10) ([1]; 20000 nM) | level (log10) (Perfluorohexanoic acid; 6700 nM) | level (log10) (Perfluorohexanoic acid; 20000 nM) | level (log10) (Perfluorohexanoic acid; 60000 nM) | level (log10) ([2]; 6700 nM) | level (log10) ([2]; 20000 nM) | level (log10) ([2]; 60000 nM) | level (log10) ([3]; 6700 nM) | level (log10) ([3]; 20000 nM) | level (log10) ([3]; 60000 nM) | level (log10) ([4]; 6700 nM) | level (log10) ([4]; 20000 nM) | level (log10) ([4]; 60000 nM) |
| --- | --- | --- | --- | --- | --- | --- | --- | --- | --- | --- | --- | --- | --- | --- | --- | --- | --- | --- | --- |
| MyoF:CXCL8/IL-8 | 0.0015 ± 0.029 | 0.028 ± 0.011 | -0.003 ± 0.041 | 0.03 ± 0.0099 | 0.043 | 0.0025 ± 0.015 | -0.06 ± 0.0057 | -0.0015 ± 0.016 | -0.0075 ± 0.026 | -0.015 ± 0.05 | -0.032 ± 0.0042 | -0.0215 ± 0.005 | -0.018 | -0.006 ± 0.023 | -0.0455 ± 0.023 | -0.0385 ± 0.0035 | -0.034 ± 0.051 | 0 ± 0.1 | 0.0265 ± 0.063 |
| MyoF:Collagen I | 0.0045 ± 0.016 | -0.0205 ± 0.0035 | -0.0005 ± 0.013 | 0.007 ± 0.0085 | 0.047 | -0.0135 ± 0.005 | -0.29 ± 0.019 | -0.01 ± 0.0057 | -0.0095 ± 0.0092 | -0.0025 ± 0.011 | 0.013 ± 0.0014 | -0.0005 ± 0.0064 | 0.0055 ± 0.018 | -0.0145 ± 0.023 | -0.0095 ± 0.013 | 0.0075 ± 0.021 | 0.0055 ± 0.012 | -0.0175 ± 0.018 | 0.003 ± 0.023 |
| MyoF:Collagen III | 0.019 ± 0.03 | -0.016 ± 0.0014 | -0.0045 ± 0.015 | 0.003 ± 0.017 | 0.006 | -0.033 ± 0.027 | -0.498 ± 0.0085 | 0.0075 ± 0.012 | 0.003 ± 0.02 | 0.0105 ± 0.0092 | -0.021 ± 0.023 | -0.026 ± 0.024 | -0.0115 ± 0.022 | -0.0275 ± 0.018 | -0.028 ± 0.031 | -0.0365 ± 0.025 | -0.0095 ± 0.0035 | -0.012 | -0.015 ± 0.0071 |
| MyoF:Collagen IV | 0.0135 ± 0.0064 | 0.0505 ± 0.069 | 0.0195 ± 0.03 | 0.044 ± 0.018 | 0.117 | 0.024 ± 0.0071 | 0.264 ± 0.031 | 0.0245 ± 0.0064 | 0.0165 ± 0.0064 | 0.0345 ± 0.037 | -0.009 ± 0.021 | -0.0075 ± 0.026 | 0.0115 ± 0.023 | 0.024 ± 0.017 | 0.0125 ± 0.022 | 0.0175 ± 0.05 | -0.0115 ± 0.015 | -0.0025 ± 0.018 | 0.011 ± 0.025 |
| MyoF:Decorin | 0.005 ± 0.011 | 0.0265 ± 0.032 | 0.004 ± 0.0099 | 0.0055 ± 0.013 | 0.07 | 0.012 ± 0.0014 | -0.0045 ± 0.05 | -0.0215 ± 0.015 | 0.0005 ± 0.023 | 0.024 ± 0.013 | -0.0075 ± 0.0021 | -0.0065 ± 0.00071 | 0.019 ± 0.0071 | 0.0305 ± 0.019 | 0.0305 ± 0.013 | 0.0565 ± 0.013 | -0.0105 ± 0.00071 | -0.0005 ± 0.036 | -0.017 ± 0.021 |
